# Laboratory results as given in article PMC5017001, “Induction of apoptosis and G2/M arrest by ampelopsin E from Dryobalanops towards triple negative breast cancer cells, MDA-MB-231” (BMC Complementary and Alternative Medicine, 2016).
# Read-outs that look alike come from different tables or passages of the source.
# Tests used:
# [1] = system: MDA-MB-231 cells; experiment: MTT cytotoxicity assay, MDA-MB-231; assay type: cell-based, human; details: for IC50: MTT
# Experimental: The cytotoxic effects of the compounds were evaluated by the MTT [3-(4,5-dimethylthiazol-2-yl)-2,5-diphenyltetrazolium bromide] assay. […] Untreated controls were also included. Following incubation, 20 μL of 5 mg/mL MTT solution was added to each well and incubated at 37 °C for 3 h. Next, 100 μL of DMSO was added to dissolve the purple precipitate of formazan crystal. The absorbance at 570 nm and 630 nm as reference wavelength was measured by a microplate reader (BioTek EL 800, United States).
# (§1) Cell growth inhibition (%) = [1 - (ODTreated/OD Control)] × 100.
# [2] = system: MCF-7 cells; experiment: MTT cytotoxicity assay, MCF-7; assay type: cell-based, human
# Experimental: (§2) The cytotoxic effects of the compounds were evaluated by the MTT [3-(4,5-dimethylthiazol-2-yl)-2,5-diphenyltetrazolium bromide] assay. The cells (50,000 cells/mL) were treated with various concentrations of the compounds (0.94–30 μM) in a 96-well plate for 72 h. Untreated controls were also included. Following incubation, 20 μL of 5 mg/mL MTT solution was added to each well and incubated at 37 °C for 3 h. Next, 100 μL of DMSO was added to dissolve the purple precipitate of formazan crystal. The absorbance at 570 nm and 630 nm as reference wavelength was measured by a microplate reader (BioTek EL 800, United States).
# as §1
# [3] = system: HT-29 cells; experiment: MTT cytotoxicity assay, HT-29; assay type: cell-based, human; details: HT-29, 72 h
# Experimental: as §2, §1
# [4] = system: A-549 cells; experiment: MTT cytotoxicity assay, A-549; assay type: cell-based, human; details: A-549, 72 h
# Experimental: as §2, §1
# [5] = system: HeLa cells; experiment: MTT cytotoxicity assay, HeLa; assay type: cell-based, human; details: 72 h
# Experimental: as §2, §1
# [6] = system: mouse embryonic fibroblast NIH/3 T3 cells; experiment: MTT cytotoxicity assay, NIH/3T3; assay type: cell-based; details: 3T3, 72 h
# Experimental: as §2, §1
# [7] = system: MCF-10A normal breast epithelial cells; experiment: MTT cytotoxicity assay, MCF10A; assay type: cell-based, human; details: 72 h
# Experimental: as §2, §1
# [8] = system: MDA-MB-231 cells; experiment: Morphological changes under inverted light microscope; assay type: cell-based, human
# Experimental: Briefly, 150,000 cells per well of MDA-MB-231 cells were seeded in a 6-well plate and incubated for 24 h. Next, the cells were treated with ampelopsin E (7.5–30 μM) and further incubated for 72 h. The untreated cells were included as a control. The image was captured at 0, 24, 48 and 72 h at the same spot under an inverted microscope (Olympus, Japan).
# [9] = system: MDA-MB-231 cells; experiment: Cell cycle analysis by flow cytometer; assay type: cell-based, human; details: 15 and 30 μM; 24, 48 and 72 h; p < 0.05
# Experimental: MDA-MB-231 cells were seeded at 800,000 cells per 75 cm^2 flask. Next, the cells were treated with ampelopsin E (7.5–30 μM). The untreated cells were also included as a control. The cells were incubated for 24, 48 and 72 h. Next, the cells were trypsinized, washed twice with ice cold PBS and collected. The cell pellet was fixed with ice-cold 70 % ethanol and stored at −20 °C. After a week, the cells were washed once again with ice-cold PBS. The cell pellet was mixed up with 250 μL Guava cell cycle reagents (EMD, Milliport Corporation, Hayward) and 300 μL PBS. The population of cells in each phase was measured by a flow cytometer (FACSCalibur, Becton Dickinson, USA). The results were analysed by using ModFit LT™ software.
# [10] = system: MDA-MB-231 cells; experiment: Annexin V/PI flow cytometric analysis of mode of cell death; assay type: cell-based, human; details: for percentage of viable cells, lower left quadrant (Annexin-V-/PI-): 24 h; for percentage of early apoptotic cells, lower right quadrant (Annexin-V+/PI-): 72 h
# Experimental: Human Annexin V/PI Apoptosis Detection Kit I (BD Biosciences Pharmingen, Franklin Lakes, NJ, USA) was used to determine the mode of cell death induced by ampelopsin E. Briefly, the MDA-MB-231 cells were seeded at 150,000 cells per well in a 6-well plate. Next, the cells were treated with ampelopsin E (7.5–30 μM). The untreated cells were also included as a control. The cells were harvested and washed with 2 mL of ice-cold PBS. Subsequently, the samples were mixed with 100 μL of […] binding buffer on ice. Next, in the dark, 5 μL annexin V and 5 μL of propidium iodide (1 mg/mL) were added with 15 min of incubation on ice. Next, 400 μL of […] binding buffer was added to dilute the samples. The cells were analyzed by using FACS Calibur flow cytometer (Becton Dickinson, USA). The results were analysed by using FlowJo version 8.6 (Treestar Inc., San Carlos, CA).
# [11] = system: MCF-7 cells; parameters: method as in Wibowo et al. [34]; details: MCF-7, ampelopsin E from Dryobalanops beccarii; ref Wibowo et al. [34]; cited from earlier work
Compound,"IC50 ([1]; MDA-MB-231, 72 h)","IC50 ([2]; MCF-7, 72 h)",IC50 [3],IC50 [4],IC50 [5],IC50 [6],IC50 [7],further results
"Oc1ccc([C@@H]2c3c(O)cc(O)cc3[C@@H]3c4c(O)cc(O)cc4[C@H]2[C@H]3c2ccc(O)cc2)cc1 [Ampelopsin F, ampelopsin F]",> 30 µM,> 30 µM,> 30 µM,> 30 µM,> 30 µM,> 30 µM,,
"COc1cccc2c1C(=O)c1c(O)c3c(c(O)c1C2=O)C[C@@](O)(C(=O)CO)C[C@@H]3O[C@H]1C[C@H](N)[C@H](O)[C@H](C)O1 [Doxorubicin, reference compound]",,,,,,,,"IC50 ([1]; Homo sapiens, MDA-MB-231, 72 h): 0.4 µM; IC50 ([2]; Homo sapiens, MCF7, MCF-7, 72 h): 0.21 ± 0.27 µM; IC50 ([7]; Homo sapiens, MCF-10A): > 10 µM"
"Oc1ccc(/C=C/c2c3c(cc4c2[C@@H](c2cc(O)cc(O)c2)[C@H](c2ccc(O)cc2)O4)O[C@H](c2ccc(O)cc2)[C@H]3c2cc(O)cc3c2[C@@H](c2cc(O)cc(O)c2)[C@H](c2ccc(O)cc2)O3)cc1 [Flexuosol A, flexuosol A]",27.5 ± 3.54 µM,> 30 µM,> 30 µM,> 30 µM,> 30 µM,> 30 µM,> 30 µM,
"O=C1O[C@@H]2[C@H](O)COC23O[C@@H](c2ccc(O)cc2)[C@H](c2cc(O)cc4c2[C@@H](c2cc(O)cc(O)c2)[C@H](c2ccc(O)cc2)O4)[C@@]13O (stereo partly drawn) [Laevifonol, laevifonol]",> 30 µM,> 30 µM,> 30 µM,> 30 µM,> 30 µM,> 30 µM,,
Oc1ccc(/C=C\c2c3c(cc4c2[C@@H](c2cc(O)cc(O)c2)[C@@H](c2ccc(O)cc2)O4)O[C@H](c2ccc(O)cc2)[C@@H]3c2cc(O)cc(O)c2)cc1 [Malaysianol D],> 30 µM,> 30 µM,,,,,> 30 µM,
Malaysianol A,23 ± 4.24 µM,> 30 µM,,,,,> 30 µM,
ampelopsin E,14.5 ± 0.71 µM,29.5 ± 0.71 µM,> 30 µM,> 30 µM,> 30 µM,> 30 µM,> 30 µM,"cell viability ([1]; 15–30 μM, p < 0.05): significant reduction; IC50 ([1]; MDA-MB-231, 24 h): 30 ± 0.13 µM; IC50 ([1]; MDA-MB-231, 48 h): 16 ± 2.01 µM; IC50 ([1]; MDA-MB-231, 72 h, listed as ampelopsin E): < 15 µM; morphological changes ([8]; 7.5 μM): membrane blebbing; morphological changes ([8]; 15 μM): cell shrinkage; morphological changes ([8]; 30 μM, 48 and 72 h): Cell detachment, cell shrinkage and formation apoptotic bodies; cell cycle arrest [9]: increase in G2/M population; percentage of viable cells, lower left quadrant (Annexin-V-/PI-) ([10]; 7.5 μM): 75.3%; percentage of early apoptotic cells, lower right quadrant (Annexin-V+/PI-) ([10]; 7.5 μM): 12.9%; percentage of viable cells, lower left quadrant (Annexin-V-/PI-) ([10]; 15 μM): 69.0%; percentage of early apoptotic cells, lower right quadrant (Annexin-V+/PI-) ([10]; 15 μM): 23.6%; percentage of viable cells, lower left quadrant (Annexin-V-/PI-) ([10]; 30 μM): 57.1%; percentage of early apoptotic cells, lower right quadrant (Annexin-V+/PI-) ([10]; 30 μM): 33.9%; mode of cell death ([10]; 7.5-30 μM): induced apoptosis; IC50 [11]: 21 µM"
nepalensinol E,> 30 µM,> 30 µM,> 30 µM,> 30 µM,> 30 µM,> 30 µM,,
